Reference: patent US10143668B2, “Hydroxy-substituted amino and ammonium derivatives and their medical use” (GRI BIO, INC., priority 2011, dated 2018)
Marks after values point to notes of the source that are not given here.

Legend:
[1] = test system: local lymph node reaction; assay: Local lymph node weight and cell count after TDI challenge; conditions: topical, diflorasone 0.1% and 0.5%, 1a 2% or 6%
Protocol: Directly after sacrifice, the ear draining lymph node (Ln. auricularis) was prepared and excised. Organ weight was determined by means of an analytical balance (Kern, Balingen, Germany). Single cell suspensions were prepared by means of a glass potter (VWR, Darmstadt, Germany) and cells were counted with a hemocytometer (Neubauer, VWR, Germany).
One of the most undesirable side-effects of corticosteroid administration is immunosuppression, which leads to the inability to effectively address parasitic infection, wound healing and tumor growth. In the current study, the local lymph node reaction after TDI challenge (lymph node weight and cell number) was determined to assess the response of immune organs.

[2] = test system: allergic contact dermatitis response in mice; assay: Allergic contact dermatitis (TDI) model in mice, mouse ear swelling test; format: in vivo; conditions: topical, 2 h before challenge
Protocol: The anti-inflammatory and anti-allergic effects of compound 1a were assessed in a mouse model of allergic contact dermatitis, a response driven primarily by T helper type 2 (Th2) cells. […] In this model, an allergic dermatitis response is obtained by sensitizing mice to TDI and subsequently challenging them with antigen by topical administration onto the ears. A quantitative assessment of anti-inflammatory and anti-allergic effects of topically or orally administered test compounds is possible by measuring the resulting ear swelling.
Female BALB/c-mice were obtained from Charles River (Sulzfeld, Germany) at age 8 weeks. All animals were housed in groups of eight per cage at 22° C. with a 12 h light/dark-cycle. Water and a standard diet (Altromin, Lage/Lippe, Germany) were available ad libitum. All animals were acclimatized for one week before experimental procedures were commenced.
Experimental procedures for BALB/c mice housing, TDI sensitization and challenge, and measurement of ear thickness were performed as previously described (Baumer et al., J Pharm Pharmacol. 55:1107-1114 (2003)) with the following modifications. For active sensitization, 100 μL of 5% (w/v) TDI was administered to the shaved and stripped abdominal epidermis on day one, and for the next three consecutive days, 50 μL of 5% (w/v) TDI was applied. The allergic reaction was boosted 21 days later by application of 50 μL of 0.5% (w/v) TDI. For the examination of test compound effects, the left ears were used for the TDI challenge (20 μL of 0.5% in acetone) and ear thickness measured 3 h before and 24 h after challenge.
Administration time: to determine optimal time for administration treatment groups were treated orally by gavage with 100 mg/kg of compound 1a (suspended in 0.5% tylose, 10 mL/kg) 1, 4 or 16 h before topical TDI challenge. One group was treated with 100 mg/kg miltefosine orally, 16 h before challenge (based on available data for optimal administration time for miltefosine) and vehicle treated mice received tylose (10 mL/kg) orally, 4 h before challenge.
Comparison with dexamethasone: one group of mice was treated orally with compound 1a at 100 mg/kg suspended in 0.5% tylose, 4 h before topical TDI challenge. Vehicle treated mice received 0.5% tylose orally 4 h before challenge. As a positive control, dexamethasone was administered in saline solution at 1 mg/kg or 3 mg/kg, 2 h and 30 min before challenge and 1 h after challenge. The dose and dosing scheme for dexamethasone was based on previous experience showing a maximal effect in this model.
[…] The solution was applied, 2 h before topical TDI challenge by administration of 10 μl onto each of the inner and outer surfaces of the left ears. A vehicle group (n=5) was treated with propyleneglycol. As a positive control, diflorasone diacetate was administered at 0.01% (low dose) and 0.05% (high dose) in 20 μl acetone, 2 h before challenge. A basal control group was left untreated.
Mean and standard error of the mean (SEM) were calculated from individual ear edema values. Statistical evaluation was a one-way analysis of variance (ANOVA) (if the test for normal distribution was passed) or the Kruskal-Wallis one-way ANOVA on Ranks (if the normal distribution test failed). Both were followed by a post-hoc test (Dunnett's method or Dunn's test, respectively). A p<0.05 was considered to be significant.

CC(=O)OCC(=O)[C@@]1(OC(C)=O)[C@@H](C)C[C@H]2[C@@H]3C[C@H](F)C4=CC(=O)C=C[C@]4(C)[C@@]3(F)[C@@H](O)C[C@@]21C [Diflorasone, diflorasone diacetate, reference compound]
local lymph node reaction (lymph node weight and cell number) [1]: highly significant reduction
Inhibition of mouse ear swelling ([2]; 0.1%): 101.1*** %
Inhibition of mouse ear swelling ([2]; 0.5%): 110.8*** %
